Measured values reported in US20250368633A1, “AZEPINE FUSED RING COMPOUND AS RIPK1 INHIBITOR AND USE THEREOF” (ARTIVILA BIOPHARMA, priority 2022, published 2025).

Columns and labels:
RIPK1 kinase = target: T1, RIPK1 kinase (Homo sapiens, UniProt Q13546); experiment: In vitro RIPK1 kinase activity assay (ADP-Glo), inhibition by compounds at 1 μM; assay type: biochemical; settings: compound 1 μM; ATP 10 μM; MBP substrate 100 μg/mL; read-out: RIPK1 kinase activity inhibition rate range
T1 construct: purchased Promega VA7593
T1 sequence (Q13546 1-671): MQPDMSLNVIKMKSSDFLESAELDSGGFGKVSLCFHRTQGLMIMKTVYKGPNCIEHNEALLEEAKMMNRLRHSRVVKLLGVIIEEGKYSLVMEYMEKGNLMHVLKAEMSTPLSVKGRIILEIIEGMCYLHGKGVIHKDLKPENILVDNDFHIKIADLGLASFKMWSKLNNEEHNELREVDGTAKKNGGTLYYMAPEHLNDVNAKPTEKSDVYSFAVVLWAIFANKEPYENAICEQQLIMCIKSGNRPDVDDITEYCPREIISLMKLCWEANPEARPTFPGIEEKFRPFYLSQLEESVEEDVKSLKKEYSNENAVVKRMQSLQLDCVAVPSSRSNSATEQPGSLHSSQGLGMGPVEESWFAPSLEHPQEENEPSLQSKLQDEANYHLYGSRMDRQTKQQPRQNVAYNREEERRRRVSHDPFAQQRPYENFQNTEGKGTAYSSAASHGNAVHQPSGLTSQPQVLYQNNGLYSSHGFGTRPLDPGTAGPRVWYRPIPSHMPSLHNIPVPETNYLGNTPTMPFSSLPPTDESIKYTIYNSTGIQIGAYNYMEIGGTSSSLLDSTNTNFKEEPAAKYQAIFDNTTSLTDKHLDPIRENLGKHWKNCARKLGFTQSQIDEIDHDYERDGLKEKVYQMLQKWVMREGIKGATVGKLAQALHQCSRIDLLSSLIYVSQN
Protocol: RIPK1 kinase activity was assayed using the ADP-Glo assay and RIPK1 kinase reaction system (Promega, catalog number: VA7593). The RIPK1 kinase activity assay was performed according to the Promega kit manual.
The experimental method was briefly described as below. The concentration of RIPK1 kinase in the RIPK1 kinase reaction system was determined by kinase titration and S/B10. Compounds were diluted with 1× kinase buffer D (1% DMSO), and 1 μL of 100 μM compound DMSO stock solution was added to 19 μL 1× kinase buffer D. RIPK1 kinase was diluted with 1× kinase buffer D. 2.5×ATP/substrate was diluted with 1× kinase buffer D. The final concentration of ATP in the kinase reaction system was 10 μM, and the final concentration of MBP substrate was 100 μg/mL. 1 μL of diluted compound and 2 μL of diluted RIPK1 kinase were mixed, incubated at room temperature for 15 minutes, 2 μL of 2.5×ATP/substrate was added, mixed, and incubated at room temperature for 1 hour. 5 μL of ADP-Glo reagent was added to each well and incubated at room temperature for 1 hour. 10 μL of ADP detection reagent was added to each well and incubated at room temperature for another 0.5-1 hour. The chemiluminescent signal was read by a microplate reader and the inhibition rate of kinase activity was calculated.

U937 cells [1] = experiment: EC50 of necroptosis inhibition in U937 cells (TSZ-induced, CellTiter-Glo); assay type: cell-based; settings: Homo sapiens, U-937; TSZ (hTNF-α, SM-164, Z-VAD-FMK) 20 hours; 10 concentration points; read-out: EC50 intervals of necroptosis inhibition in U937 cells
Protocol: (§1) The biological activity of RIPK1 inhibitors was further evaluated in the inhibition of necroptosis in U937 cells. U937 cell line was purchased from Huatuo Biotechnology and stored in liquid nitrogen. U937 cells were revived before the experiment and cultured in RPMI-1640 medium (supplemented with 10% fetal bovine serum, 100 U/mL penicillin and 100 μg/mL streptomycin) at 37° C., 5% CO2. The activity was further evaluated by the cellular ATP level detected by the Promega CellTiter-Glo 2.0 Assay cell viability assay kit (Catalog No.: G9242).
The experimental method was briefly described as below. U937 cells in the logarithmic growth phase were collected by centrifugation. Cells were diluted to the cell density of 5×10^5 cells/mL with RPMI 1640 medium (supplemented with 10% fetal bovine serum, 100 U/mL penicillin and 100 μg/mL streptomycin). Cell suspension was added to a white sterile 384-well cell culture plate at 15 μL/well. The test compound was dissolved in DMSO to prepare a 10 mM stock solution. The compound was serially diluted with culture medium at a ratio of 1:3, for a total of 10 concentration points. A control with the same DMSO volume was set, with two replicates for each concentration. The diluted compound was added to the 384-well cell culture plate containing cells at 2.5 μL/well and incubated at 37° C., 5% CO2 for 15 minutes. Z-VAD-FMK (Biyuntian, catalog number: C1202-5 mg) was dissolved in DMSO to prepare a 20 mM stock solution. SM-164 (Biyuntian, catalog number: SC0114-10 mM) was dissolved in DMSO to prepare a 10 mM stock solution and diluted to 0.1 mM. hTNF-α (Sino Biological Inc., catalog number: 10602-HNAE) was dissolved in sterile water to 10 μg/mL. RPMI 1640 medium (supplemented with 10% fetal bovine serum, 100 U/mL penicillin and 100 μg/mL streptomycin) was used to prepare the TSZ mixture, containing 133.3 μM Z-VAD-FMK, 33.3 ng/ml hTNF-α and 0.3 μM SM-164. After 15 minutes' coculture of compounds and cells, 7.5 μL of TSZ mixture was added to each well, mixed evenly, and cultured at 37° C., 5% CO2 for 20 hours. After 20 hours, the culture plate was removed and placed at room temperature for 30 minutes. Then, 10 μL of CellTiter-Glo reagent pre-equilibrated at room temperature was added to each well and incubated. After 10 minutes' incubation at room temperature in the dark, the chemiluminescence were measured using a microplate reader. The inhibition rate was calculated as Inh %=(1−(no TSZ-TSZ & compound)/(no TSZ-TSZ))×100. The EC50 was obtained by fitting the nonlinear regression curve log [inhibitor] vs. response−variable slope (four parameters) in GraphPad Prism.

U937 cells [2] = experiment: Inhibition rate of compound (1 μM) on necroptosis of U937 cells (TSZ-induced, CellTiter-Glo); assay type: cell-based; settings: TSZ (hTNF-α, SM-164, Z-VAD-FMK) 20 hours
Protocol: as §1
The experimental method was briefly described as below. U937 cells in the logarithmic growth phase were collected by centrifugation. Cells were diluted at the density of 5×10^5 cells/mL with RPMI 1640 medium (supplemented with 10% fetal bovine serum, 100 U/mL penicillin and 100 μg/mL streptomycin). The cell suspension was added to a white sterile 384-well cell culture plate at 15 μL/well. The test compound was dissolved in DMSO to prepare a 10 mM stock solution and diluted to 10 μM with culture medium. At the same time, a control with the same DMSO volume was set up. Two replicates were added for each concentration. The diluted compound was added to the 384-well cell culture plate containing cells at 2.5 µL/well and incubated at 37° C., 5% CO2 for 15 minutes. Z-VAD-FMK (Biyuntian, catalog number: C1202-5 mg) was dissolved in DMSO to prepare a 20 mM stock solution. SM-164 (Biyuntian, catalog number: SC0114-10 mM) was dissolved in DMSO to prepare a 10 mM stock solution and diluted to 0.1 mM. hTNF-α (Sino Biological Inc., catalog number: 10602-HNAE) was dissolved in sterile water to 10 μg/mL. RPMI 1640 medium (supplemented with 10% fetal bovine serum, 100 U/mL penicillin and 100 μg/mL streptomycin) was used to prepare the TSZ mixture, containing 133.3 μM Z-VAD-FMK, 33.3 ng/ml hTNF-α and 0.3 μM SM-164. After 15 minutes' coculture of compounds and cells, 7.5 μL of TSZ mixture was added to each well, mixed evenly, and cultured at 37° C., 5% CO2 for 20 hours. After 20 hours, the culture plate was removed and placed at room temperature for 30 minutes. 10 μL of CellTiter-Glo reagent pre-equilibrated at room temperature was added to each well and incubated for 10 minutes from light. The chemiluminescence was read by a microplate reader. The inhibition rate was calculated as Inh %=(1−(no TSZ-TSZ & compound)/(no TSZ-TSZ))×100.

inhibition at 1 µM (RIPK1 kinase) [%]	SMILES	EC50 (U937 cells [1]) [nM]	Inhibition rate range of compounds (1 μM) on U937 cell necroptosis (U937 cells [2])
≥ 75	CN1C(=O)[C@@H](NC(=O)C(=O)NCCc2ccccc2)COc2cc(O)ccc21 [Example 5, (S)—N^1-(8-hydroxy-5-methyl-4-oxo-2,3,4,5-tetrahydrobenzo[b][1,4]oxazepin-3-yl)-N^2-phenethyloxalamide]	100 to 500	A (A: ≥90%)
≥ 75	C=CCOc1ccc2c(c1)N(C)C(=O)[C@@H](NC(=O)C(=O)NCCc1ccccc1)CO2 [Example 9, (S)—N^1-(7-(allyloxy)-5-methyl-4-oxo-2,3,4,5-tetrahydrobenzo[b][1,4]oxazepin-3-yl)-N^2-phenethyl oxalamide]	100 to 500	A (A: ≥90%)
≥ 75	CN1C(=O)C(NC(=O)C(=O)NCCc2ccccc2)CCc2cccnc21 (stereo not shown) [Example 69, N^1-(9-methyl-8-oxo-6,7,8,9-tetrahydro-5H-pyrido[2,3-b]azepin-7-yl)-N^2-phenethyloxalamide]	500 to 2000	B (B: 50-89%)
≥ 75	Cc1cccc(/C=C/c2ccc3c(c2)N(C)C(=O)[C@@H](NC(=O)C(=O)NCCc2ccccc2)CO3)c1 [Example 11, (S,E)-N^1-(5-methyl-7-(3-methylstyryl)-4-oxo-2,3,4,5-tetrahydrobenzo[b][1,4]oxazepin-3-yl)-N^2-phenethyloxalamide]	< 100	A (A: ≥90%)
≥ 75	CN1C(=O)[C@@H](NC(=O)C(=O)NC(C)(C)c2ccccc2)COc2ccc(C#CCN3CCOCC3)cc21 [Example 160, (S)—N^1-(5-methyl-7-(3-morpholinoprop-1-yn-1-yl)-4-oxo-2,3,4,5-tetrahydrobenzo[b][1,4]oxazepin-3-yl)-N^2-(2-phenylpropan-2-yl)oxalamide]	< 100	A (A: ≥90%)
≥ 75	CN1C(=O)[C@@H](NC(=O)C(=O)NCCc2ccccc2)COc2ccc(C#CC3CC3)cc21 [Example 2, (S)—N^1-(7-(cyclopropylethynyl)-5-methyl-4-oxo-2,3,4,5-tetrahydrobenzo[b][1,4]oxazepin-3-yl)-N^2-phenethyloxalamide]	< 100	A (A: ≥90%)
≥ 75	CN1C(=O)[C@@H](NC(=O)C(=O)NCCc2ccccc2)COc2ccc(C#CC3=CCCCC3)cc21 [Example 26, (S)—N^1-(7-(cyclohex-1-en-1-ylethynyl)-5-methyl-4-oxo-2,3,4,5-tetrahydrobenzo[b][1,4]oxazepin-3-yl)-N^2-phenethyloxalamide]	< 100	A (A: ≥90%)
≥ 75	C[C@@H](NC(=O)C(=O)N[C@H]1COc2ccc(C#CC3CN(C)C3)cc2N(C)C1=O)c1ccccc1 [Example 147, N^1-((S)-5-methyl-7-((1-methylazetidin-3-yl)ethynyl)-4-oxo-2,3,4,5-tetrahydrobenzo[b][1,4]oxazepin-3-yl)-N^2-((R)-1-phenylethyl)oxalamide]	< 100	A (A: ≥90%)
≥ 75	CN1C(=O)[C@@H](NC(=O)C(=O)NCCc2ccccc2)COc2ccc(C#CCn3ccnc3)cc21 [Example 72, (S)—N^1-(7-(3-(1H-imidazol-1-yl)prop-1-yn-1-yl)-5-methyl-4-oxo-2,3,4,5-tetrahydrobenzo[b][1,4]oxazepin-3-yl)-N^2-phenethyloxalamide]	< 100	A (A: ≥90%)
≥ 75	COc1ccc2c(c1)N(C)C(=O)[C@@H](NC(=O)C(=O)NCCc1ccccc1)CO2 [Example 8, (S)—N^1-(7-methoxy-5-methyl-4-oxo-2,3,4,5-tetrahydrobenzo[b][1,4]oxazepin-3-yl)-N^2-phenethyloxalamide]	100 to 500	A (A: ≥90%)
50 to 74	CN1C(=O)[C@@H](NC(=O)C(=O)NCCc2ccccc2F)COc2ccccc21 [Example 99, (S)—N^1-(2-fluorophenethyl)-N^2-(5-methyl-4-oxo-2,3,4,5-tetrahydrobenzo[b][1,4]oxazepin-3-yl)oxalamide]	–	B (B: 50-89%)
25 to 49	CN1C(=O)[C@@H](NC(=O)C(=O)NCCOc2ccccc2)COc2ccccc21 [Example 103, (S)—N^1-(5-methyl-4-oxo-2,3,4,5-tetrahydrobenzo[b][1,4]oxazepin-3-yl)-N^2-(2-phenoxyethyl)oxalamide]	500 to 2000	–
